The source of these data is patent US5739131A, “Benzene derivatives and pharmaceutical composition” (Kureha Chemical Industry Co., Ltd., priority 1994, dated 1998).

In data set [1] the test system is kidney disease model rats. In words: Action to survival time of kidney diseased animals. Type of data set: in vivo, Sprague-Dawley female rats. Particulars: 20 mg/kg/day per os, observation eight weeks (upper limit); control 5.0. The procedure:
The kidney disease model rats were prepared as in Example 115. Twenty-five groups (8 rats per group) were prepared in a manner so that there was no major difference between the groups in the serum creatinine value and the urea nitrogen value indicating renal function. The rats in each group were allowed to freely take up feed and water. […] To the rats in the control group, only water was forcedly administered per os every day. If kidney diseases are aggravated, the rat will die of uremia. Thus, the survival time was observed as comprehensive indication of the improvement effect on the kidney diseases. The observation period was eight weeks. Thus if all rats survived, the average survival time is eight weeks and it is an upper limit.

Data set [2] has as its system kidney disease model rats. In words: Renal function indicatory value (action to kidney diseases). Type of data set: in vivo, Sprague-Dawley female rats. The settings on record: 20 mg/kg/day per os, two weeks; for Creatinine clearance: 24 hours urine, control 0.20; for Creatinine / Urea nitrogen: serum; for Creatinine: control 2.0; for Urea nitrogen: control 100. The procedure: The kidney disease model rats were prepared as in Example 115. Twenty-five groups (8 rats per group) were sleeked in a manner so that there were no major differences between each group in the serum creatinine value and the urea nitrogen value indicating renal function. The rats in each group were allowed to freely take up feed and water. […] To the rats in the control group, only water was forcedly administered per os every day. After two weeks, 0.2 ml of blood was collected from the carotid artery of the rat under anesthesia, and centrifuged to obtain serum. Using 25 μl of the serum, serum creatinine (Scr) was measured by a creatinine analytical instrument (Beckman). Using 10 μl of the serum, urea nitrogen (BUN) was measured by a BUN analytical instrument (Beckman). Creatinine clearance was evaluated as follows:
After serum creatinine measurement, rats were placed in urinary metabolic cages for 24 hours to collect urine. Urinary creatine concentration (Ucr) was measured by a creatinine analytical instrument, and total volume of urination (Uvol) was also measured. Creatinine clearance (CCr) was calculated by the following formula: [formula]

Data set [3] addresses T1, angiotensin II receptor subtype 2 (AT2) (Bos taurus, UniProt G5E6F7).
T1 construct: receptor: from cerebellar cortex in bovine; from tissue; host or cells: bovine cerebellar cortex
T1 sequence (G5E6F7 1-362): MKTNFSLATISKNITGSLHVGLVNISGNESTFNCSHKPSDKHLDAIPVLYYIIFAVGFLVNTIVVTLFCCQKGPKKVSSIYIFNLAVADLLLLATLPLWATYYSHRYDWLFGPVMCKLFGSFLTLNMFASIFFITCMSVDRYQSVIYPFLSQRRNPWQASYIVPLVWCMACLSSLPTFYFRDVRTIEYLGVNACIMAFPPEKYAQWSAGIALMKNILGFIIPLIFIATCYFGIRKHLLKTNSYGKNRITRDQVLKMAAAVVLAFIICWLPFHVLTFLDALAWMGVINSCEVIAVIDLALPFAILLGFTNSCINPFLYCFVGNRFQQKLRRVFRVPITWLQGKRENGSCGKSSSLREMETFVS
The data set can be described thus: Binding assay, angiotensin II receptor subtype 2 (AT2). Particulars: 100 μM, AT2, bovine cerebellar cortex, 37° C. 1 hour; read-out: Binding inhibition % in 100 μm, AT2. On the set-up: species or system bovine (cerebellar cortex). The procedure:
(§1) In this Example, the affinity to the angiotensin II receptor subtype 1 or subtype 2 was evaluated by a binding assay in accordance with the method described in Biochem. Pharmacol., 33, 4057-4062 (1984).
(§2) Specifically, the measurement of the total binding in the presence of each drug was performed as follows:
(§3) A mixture (final volume=0.25 ml) of a drug in a given concentration (the drug was dissolved in DMSO, and diluted to a double volume with a buffer attached to a drug discovery system to prepare sample for the assay; 0.025 ml), a tracer (0.025 ml), and receptors (0.2 ml) was incubated [in the case of the angiotensin II receptor subtype 1 (AT1), at room temperature for 3 hours, and in the case of the subtype 2 (AT2), at 37° C. for 1 hour]. Then, the reaction mixture was filtered with suction (GF/C filter was used in AT1, and GF/B filter was used in AT2). The filter papers after filtration with suction (the tracer bound to the receptors) were counted by a γ-well counter (ARC-500, Aloka). The non-specific bindings were measured by repeating the above method, except that a large excess amount of a displacer was added. The specific binding of the drug in the given concentration was calculated by subtracting the non-specific binding from the total binding, respectively.
(§4) In AT1 and AT2, the percentages to inhibit the bindings of radioactive ligands (tracer) to receptors by the drugs to be tested (IC50 value of concentration to show 50% inhibition, or binding inhibition % in 100 μM) were measured, using the drugs to be tested and control drugs in the given concentration.
receptor: from cerebellar cortex in bovine
tracer: ^125 ITyr^4angiotensin II
control drug: angiotensin II (human)
(displacer): angiotensin II (human)

Data set [4] relates to kidney disease model rats. In words: Action to depress blood pressure (tail cuff method). Type of data set: in vivo, Sprague-Dawley female rats. Particulars: systolic, average, 20 mg/kg per os, two days from administration; control (water) 203. The procedure:
The compounds of the present invention and the reference substance were forcedly administered per os to kidney disease model rats, and the action to depress blood pressure was observed. The kidney disease model rats were prepared by ligature of branches of renal artery in accordance with the conventional method, that is, the left hilum renalis of Sprague-Dawley female rats was exposed under anesthesia, and one of four secondary branches of renal artery was left unligated, while the remaining three branches were ligated, respectively. After a week, the hilum renalis (artery, vein, and ureter) of the right kidney were further ligated to thereby prepare the rats whose renal function was lowered to approximately 1/8 of the normal function. Each group consisted of eight rats. The drugs to be tested (20 mg/kg) were administered to each administering group, and only water was administered to control group. After two days from the administration, the systolic blood pressure was measured by the tail cuff method using a blood pressure measuring apparatus (UR5000; Ueda).

Data set [5] addresses T2, angiotensin II receptor subtype 1 (AT1) (Oryctolagus cuniculus, UniProt P34976).
T2 construct: receptor: from adrenal glands in rabbits; from tissue; host or cells: rabbit adrenal glands
T2 sequence (P34976 1-359): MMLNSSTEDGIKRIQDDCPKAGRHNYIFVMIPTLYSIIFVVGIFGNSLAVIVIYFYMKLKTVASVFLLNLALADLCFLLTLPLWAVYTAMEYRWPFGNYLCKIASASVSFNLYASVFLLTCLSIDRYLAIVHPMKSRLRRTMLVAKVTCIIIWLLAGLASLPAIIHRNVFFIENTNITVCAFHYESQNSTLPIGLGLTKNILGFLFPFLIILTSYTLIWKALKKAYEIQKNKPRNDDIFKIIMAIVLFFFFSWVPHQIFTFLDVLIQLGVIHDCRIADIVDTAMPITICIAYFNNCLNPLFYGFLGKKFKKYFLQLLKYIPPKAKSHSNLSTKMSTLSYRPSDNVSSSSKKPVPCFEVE
In words: Binding assay, angiotensin II receptor subtype 1 (AT1). On the set-up: species or system rabbit (adrenal glands). The settings on record: for IC50: tracer 3H angiotensin II, room temperature 3 hours, read-out: IC50 AT1; for inhibition at 100 µM: AT1, rabbit adrenal glands. As for the experimental part: as §1, §2, §3, §4

The next data set relates to mice. The data set can be described thus: Acute toxicity, single oral dose. Type of data set: in vivo. As for the experimental part:
Five-week-old ICR female mice (5 mice per group) were bred for acclimation for a week. Then, the compounds of the present invention were dissolved or dispersed in an aqueous solution of 0.5% methylcellulose, and orally administered to the mice in a single dosage (500 mg/kg).

`CCCCC(=O)N(Cc1ccc(-c2ccccc2-c2nn[nH]n2)cc1)c1cc(C(=O)N2CCOCC2)ccc1NC(C)=O` [Compound No. 592, 4-acetamido-3-N-[[[2'-(1H-tetrazol-5-yl)biphenyl-4-yl]methyl]valeramido]benzoic acid morpholide]: the Average survival time in data set [1] is 7.0 weeks. In data set [2], this compound registered a Creatinine clearance of 0.33 mL/min, a Creatinine of 1.7 mg/dL and a Urea nitrogen of 76 mg/dL. For the same compound, the inhibition at 100 µM in data set [3] worked out at 0%. Further, the Blood pressure in data set [4] turned out to be 202 mmHg. For the same compound, the IC50 in data set [5] came to 4.9 µM. Further, in the data set on mice (mouse, in vivo, po, 500 mg/kg), the “Number of deaths/number of survivals” value was 0/5.
As for `CCCCCN(C)c1c(NCc2ccc(-c3ccccc3-c3nn[nH]n3)cc2)cc(C(=O)N2CCOCC2)cc1NC(=O)C(c1ccccc1)c1ccccc1` [Compound No. 593, 4-(N-n-amyl-N-methyl)amino-5-(diphenylacetamido)-3-[[2'-(1H-tetrazol-5-yl)biphenyl-4-yl]methylamino]benzoic acid morpholide], the Average survival time in data set [1] is given as 7.1 weeks. Besides, in data set [2], the Creatinine clearance came to 0.31 mL/min, the Creatinine turned out to be 1.6 mg/dL and the Urea nitrogen worked out at 80 mg/dL. The inhibition at 100 µM in data set [3] was 0%. Besides, the Blood pressure in data set [4] was determined as 200 mmHg. This compound also yielded an inhibition at 100 µM in data set [5] of 36%. The “Number of deaths/number of survivals” value with mice (mouse, in vivo, po, 500 mg/kg) is 0/5.
As for `CCCCC(=O)Nc1ccc(C(=O)N2CCOCC2)cc1N(Cc1ccc(-c2ccccc2-c2nn[nH]n2)cc1)Cc1ccc(-c2ccccc2-c2nn[nH]n2)cc1` [Compound No. 594, 3-[di-[2'-(1H-tetrazol-5-yl)biphenyl-4-yl]methylamino]-4-valeramidobenzoicacid morpholide], in data set [1], the Average survival time was 6.5 weeks. In data set [2], this compound showed a Creatinine clearance of 0.30 mL/min, a Creatinine of 1.7 mg/dL and a Urea nitrogen of 77 mg/dL. Besides, the inhibition at 100 µM in data set [3] amounted to 0%. The Blood pressure in data set [4] was found to be 194 mmHg. The IC50 in data set [5] worked out at 32 µM. The “Number of deaths/number of survivals” value with mice (mice, single oral 500 mg/kg, observed for 6 days, 5 per group) is given as 0/5.
Regarding `CCCCCN(C)c1ccc(S(=O)(=O)N2CCOCC2)cc1NCc1ccc(-c2ccccc2-c2nn[nH]n2)cc1` [Compound No. 595, 4-[[4-(N-n-amyl-N-methyl)amino-3-[[2'-(1H-tetrazol-5-yl)biphenyl-4-yl]methyl]aminobenzene]sulfonyl]morpholine], the Average survival time in data set [1] came out at 7.6 weeks. In data set [2], this compound came in with a Creatinine clearance of 0.38 mL/min, a Creatinine of 1.5 mg/dL and a Urea nitrogen of 73 mg/dL. For the same compound, the inhibition at 100 µM in data set [3] came out at 0%. In data set [4], this compound showed a Blood pressure of 198 mmHg. For the same compound, in data set [5], the inhibition at 100 µM turned out to be 41%. Further, the “Number of deaths/number of survivals” value in the data set on mice (mouse, in vivo, po, 500 mg/kg) is 0/5.
The compound `CCCCCN(C)c1ccc(S(=O)(=O)N2CCOCC2)cc1NCc1ccc(C(=O)O)cc1` [Compound No. 596, 4-[[4-(N-n-amyl-N-methyl)amino-3-[(4-carboxyphenyl)methyl]aminobenzene]sulfonyl]morpholine] had an Average survival time in data set [1] of 6.0 weeks. In data set [2], the Creatinine clearance was 0.34 mL/min, the Creatinine is 1.6 mg/dL and the Urea nitrogen was 78 mg/dL. The inhibition at 100 µM in data set [3] is 0%. The compound also came in with a Blood pressure in data set [4] of 198 mmHg. This compound registered an inhibition at 100 µM in data set [5] of 22%. Also, the “Number of deaths/number of survivals” value with mice (mouse, in vivo, po, 500 mg/kg) is on record as 0/5.
With `CCCCCN(C)c1c(NCc2ccc(C(=O)O)cc2)cc(S(=O)(=O)N2CCOCC2)cc1NC(=O)C(c1ccccc1)c1ccccc1` [Compound No. 598, 4-[[4-(N-n-amyl-N-methyl)amino-3-[(4-carboxylphenyl)methyl]amino-5-(diphenylacetamido)benzene]sulfonyl]morpholine], in data set [1], the Average survival time is reported as 7.2 weeks. Also, in data set [2], the Creatinine clearance worked out at 0.35 mL/min, the Creatinine came to 1.6 mg/dL and the Urea nitrogen is 80 mg/dL. The inhibition at 100 µM in data set [3] turned out to be 0%. This compound displayed a Blood pressure in data set [4] of 202 mmHg. In addition, in data set [5], the inhibition at 100 µM worked out at 36%. In the data set on mice (mouse, in vivo, po, 500 mg/kg), the “Number of deaths/number of survivals” value is reported as 0/5.
Turning to `CCCCCN(C)c1c(NCc2ccc(-c3ccccc3-c3nn[nH]n3)cc2)cc(S(=O)(=O)N2CCOCC2)cc1NC(=O)CCc1ccccc1` [Compound No. 599, 4-[[4-(N-n-amyl-N-methyl)amino-3-[[2'-(1H-tetrazol-5-yl)biphenyl-4-yl]methyl]amino-5-(3-phenylpropionamido)benzene]sulfonyl]morpholine], the Average survival time in data set [1] is on record as 7.0 weeks. In data set [2], this compound had a Creatinine clearance of 0.35 mL/min, a Creatinine of 1.5 mg/dL and a Urea nitrogen of 73 mg/dL. Moreover, the inhibition at 100 µM in data set [3] was determined as 0%. In data set [4], the Blood pressure is on record as 200 mmHg. Also, 100 µM produced 38% inhibition in data set [5]. The “Number of deaths/number of survivals” value in the data set on mice (mouse, in vivo, po, 500 mg/kg) is given as 0/5.

In general, inhibition refers to the relative decrease from the control value, in per cent. For orientation: IC50 means the point on the concentration scale where inhibition reaches its midpoint.
